This test concerns the target T1, KRAS G12C 1-169, his-tagged protein, GDP-loaded (Homo sapiens, UniProt P01116, G12C).
T1 construct: KRAS G12C 1-169, his-tagged protein, GDP-loaded; His tag
Kind of test: Biochemical assay: covalent modification of KRAS G12C measured by mass spectrometry (RapidFire/TOF or Q-Exactive). In kind it is binding. Particulars: Modification Activity; modification percentage from deconvoluted MS peak intensities; compound concentration and incubation time for Table 2 not stated. How it is done:
Test compounds are prepared as 10 mM stock solutions in DMSO (Fisher cat # BP-231-100). KRAS G12C 1-169, his-tagged protein, GDP-loaded is diluted to 2 μM or 0.5 μM in buffer (20 mM Hepes, 150 mM NaCl, 1 mM MgCl2). Compounds are tested for activity as follows:
Compounds are diluted to 50× final test concentration in DMSO in 96-well storage plates. Compound stock solutions are vortexed before use and observed carefully for any sign of precipitation. Dilutions are as follow: • For 100 μM final compound concentration, compounds are diluted to 5000 μM (5 μL 10 mM compound stock+5 μL DMSO and mixed well by pipetting. • For 30 μM final compound concentration, compounds are diluted to 1500 μM (3 μL 10 mM compound stock+17 μL DMSO) and mixed well by pipetting. • For 10 μM final compound concentration, compounds are diluted to 500 μM (2 μL 10 mM compound stock+38 μL DMSO) and mixed well by pipetting. 49 μL of the stock protein solution is added to each well of a 96-well PCR plate (Fisher cat #1423027). 1 μl of the diluted 50× compounds are added to appropriate wells in the PCR plate using 12-channel pipettor. Reactions are mixed carefully and thoroughly by pipetting up/down with a 200 μL multi-channel pipettor. The plate is sealed well with aluminum plate seal, and stored in drawer at room temperature for 10 minutes, 30 minutes, 2 hours or 24 hours. 5 μL of 2% formic acid (Fisher cat # A117) in de-ionized H2O is then added to each well followed by mixing with a pipette. The plate is then resealed with aluminum seal and stored on dry ice until analyzed as described below.
The above described assays are analyzed by mass spectrometry according to one of the following two procedures:
The MS instrument is set to positive polarity, 2 GHz resolution, and low mass (1700) mode and allowed to equilibrate for 30 minutes. The instrument is then calibrated, switched to acquisition mode and the appropriate method loaded.
After another 30 minute equilibration time, a blank batch (i.e., buffer) is run to ensure equipment is operating properly. The samples are thawed at 37° C. for 10 minutes, briefly centrifuged, and transfer to the bench top. Wells A1 and H12 are spiked with 1 μL 500 μM internal standard peptide, and the plates centrifuged at 2000×g for 5 minutes. The method is then run and masses of each individual well recorded.
The masses (for which integration data is desired) for each well are pasted into the platemap and exported from the analysis. Masses for the internal standards are exported as well. The data at 50 ppm is extracted for the +19 charge state, and identity of well A1 is assigned using the internal standard spike and integrated. Peak data is exported as a TOF list and the above steps are repeated individually, for the +20, 21, 22, 23, 24, and 25 charge states.
The masses and peak intensities of KRAS G12C protein species are measured using a Dionex RSLCnano system (Thermo Scientific) connected to a Q Exactive Plus mass spectrometer (Thermo Scientific).
[…] of sample is each loaded onto a Aeris™ 3.6 μm WIDEPORE C4 200 Å, LC Column 50×2.1 mm column maintained at 40° C. at a flow rate of 600 μL/min with […] (0.1% formic acid in acetonitrile). The liquid chromatography conditions are 20% solvent B for 1 minute, 20% to 60% solvent B for 1.5 minutes, 60% to 90% solvent for 0.5 minute, 90% solvent B for 0.2 minute, 90% to 20% solvent B for 0.2 minute, and then equilibrated for 1.6 minute before the following sample injection. The flow rate is maintained at 600 μL/min throughout the sample analysis.
The mass spectrometer is operated in profile mode at a resolution of 17500, 5 microscans, using 50 msec max injection time and an AGC target of 1×10^6, and a full mass range from 800-1850 m/z is recorded. The HCD trapping gas is optimized for maximum sensitivity for intact proteins. […]

For the molecule `C=CC(=O)N1C[C@H](C)N(c2ncnc3c(F)c(-c4c(C)ccc5cnn(C)c45)c(Cl)cc23)C[C@H]1C` (atropisomer, axis not shown) [Compound 8, 1-((2R,5S)-4-((R)-6-chloro-7-(1,6-dimethyl-1H-indazol-7-yl)-8-fluoroquinazolin-4-yl)-2,5-dimethylpiperazin-1-yl)prop-2-en-1-one], the Binding % result is reported as “+++ (+++ indicates binding activity greater than 85%)”.

Take `C=CC(=O)N1[C@H](C)CN(c2ncnc3c(F)c(-c4c(C)ccc5cnn(C)c45)c(Cl)cc23)C[C@@H]1C` (atropisomer, axis not shown) [Compound 9, 1-((2S,6R)-4-((S)-6-chloro-7-(1,6-dimethyl-1H-indazol-7-yl)-8-fluoroquinazolin-4-yl)-2,6-dimethylpiperazin-1-yl)prop-2-en-1-one]: the Binding % entry is “+ (+ indicates binding activity greater than 0% and up to 50%)”.

On to `C=CC(=O)N1[C@H](C)CN(c2ncnc3c(F)c(-c4c(C)ccc5cnn(C)c45)c(Cl)cc23)C[C@@H]1C` (atropisomer, axis not shown) [Compound 10, 1-((2S,6R)-4-((R)-6-chloro-7-(1,6-dimethyl-1H-indazol-7-yl)-8-fluoroquinazolin-4-yl)-2,6-dimethylpiperazin-1-yl)prop-2-en-1-one], for which the Binding % result is recorded as “++ (++ indicates binding activity from 50 to 85%)”.

For `C=CC(=O)N1C[C@H](C)N(c2ncnc3c(F)c(-c4c(C)ccc5[nH]nc(N)c45)c(Cl)cc23)C[C@H]1C` [Compound 5, 1-((2R,5S)-4-((R)-7-(3-amino-5-methyl-1H-indazol-4-yl)-6-chloro-8-fluoroquinazolin-4-yl)-2,5-dimethylpiperazin-1-yl)prop-2-en-1-one], the Binding % entry was “++ (++ indicates binding activity from 50 to 85%)”.

As to `C=CC(=O)N1C[C@H](C)N(c2ncnc3c(F)c(-c4c(C)ccc5[nH]nc(N)c45)c(Cl)cc23)C[C@H]1C` [Compound 6, 1-((2R,5S)-4-((S)-7-(3-amino-5-methyl-1H-indazol-4-yl)-6-chloro-8-fluoroquinazolin-4-yl)-2,5-dimethylpiperazin-1-yl)prop-2-en-1-one], the Binding % result was “+ (+ indicates binding activity greater than 0% and up to 50%)”.

For `C=CC(=O)N1C[C@H](C)N(c2ncnc3c(F)c(-c4c(C)ccc5cnn(C)c45)c(Cl)cc23)C[C@H]1C` [Compound 7, 1-((2R,5S)-4-((S)-6-chloro-7-(1,6-dimethyl-1H-indazol-7-yl)-8-fluoroquinazolin-4-yl)-2,5-dimethylpiperazin-1-yl)prop-2-en-1-one], the Binding % entry was “+ (+ indicates binding activity greater than 0% and up to 50%)”.

In the case of `C=CC(=O)N1CCN(c2c(C#N)cnc3c(F)c(-c4c(C)ccc5cnn(C)c45)c(Cl)cc23)CC1` [Compound 11, 4-(4-acryloylpiperazin-1-yl)-6-chloro-7-(1,6-dimethyl-1H-indazol-7-yl)-8-fluoroquinoline-3-carbonitrile], the Binding % entry was “+++ (+++ indicates binding activity greater than 85%)”.

For `C=CC(=O)N1CCN(c2c(C#N)cnc3c(F)c(-c4c(C)ccc5[nH]nc(C)c45)c(Cl)cc23)CC1` [Compound 12, 4-(4-acryloylpiperazin-1-yl)-6-chloro-7-(3,5-dimethyl-1H-indazol-4-yl)-8-fluoroquinoline-3-carbonitrile], the Binding % entry is “++ (++ indicates binding activity from 50 to 85%)”.

Turning to `C=CC(=O)N1CCN(c2c(C#N)cnc3c(F)c(-c4c(C)ccc5[nH]nc(C6CC6)c45)c(Cl)cc23)CC1` [Compound 13, 4-(4-acryloylpiperazin-1-yl)-6-chloro-7-(3-cyclopropyl-5-methyl-1H-indazol-4-yl)-8-fluoroquinoline-3-carbonitrile], the Binding % entry is given as “+++ (+++ indicates binding activity greater than 85%)”.

For the molecule `C=CC(=O)N1CCN(c2c(C#N)cnc3c(F)c(-c4c(C)ccc5cnn(C6CC6)c45)c(Cl)cc23)CC1` [Compound 14, 4-(4-acryloylpiperazin-1-yl)-6-chloro-7-(1-cyclopropyl-6-methyl-1H-indazol-7-yl)-8-fluoroquinoline-3-carbonitrile], the Binding % entry was “+++ (+++ indicates binding activity greater than 85%)”.

With `C=CC(=O)N1CCN(c2cnnc3cc(-c4c(C)ccc5cnn(C)c45)c(Cl)cc23)CC1` [Compound 15, 1-(4-(6-chloro-7-(1,6-dimethyl-1H-indazol-7-yl)cinnolin-4-yl)piperazin-1-yl)prop-2-en-1-one], the Binding % entry was “+ (+ indicates binding activity greater than 0% and up to 50%)”.

Consider `C=CC(=O)N1CCN(c2cnnc3cc(-c4c(C)ccc5cnn(C6CC6)c45)c(Cl)cc23)CC1` [Compound 16, 1-(4-(6-chloro-7-(1-cyclopropyl-6-methyl-1H-indazol-7-yl)cinnolin-4-yl)piperazin-1-yl)prop-2-en-1-one], for which the Binding % result is “+ (+ indicates binding activity greater than 0% and up to 50%)”.

Consider `C=CC(=O)N1CCN(c2cnnc3cc(-c4c(C)ccc5[nH]nc(C)c45)c(Cl)cc23)CC1` [Compound 17, 1-(4-(6-chloro-7-(3,5-dimethyl-1H-indazol-4-yl)cinnolin-4-yl)piperazin-1-yl)prop-2-en-1-one], for which the Binding % entry is “+ (+ indicates binding activity greater than 0% and up to 50%)”.

Consider `C=CC(=O)N1CCN(c2cnnc3cc(-c4c(C)ccc5[nH]nc(C6CC6)c45)c(Cl)cc23)CC1` [Compound 18, 1-(4-(6-chloro-7-(3-cyclopropyl-5-methyl-1H-indazol-4-yl)cinnolin-4-yl)piperazin-1-yl)prop-2-en-1-one], for which the Binding % result is “+ (+ indicates binding activity greater than 0% and up to 50%)”.

Regarding `C=CC(=O)N1C[C@H](C)N(c2c(C#N)cnc3c(F)c(-c4c(C)ccc5cnn(C)c45)c(Cl)cc23)C[C@H]1C` [Compound 19, 4-((2S,5R)-4-acryloyl-2,5-dimethylpiperazin-1-yl)-6-chloro-7-(1,6-dimethyl-1H-indazol-7-yl)-8-fluoroquinoline-3-carbonitrile], the Binding % result was “+ (+ indicates binding activity greater than 0% and up to 50%)”.

Regarding `C=CC(=O)N1C[C@H](C)N(c2c(C#N)cnc3c(F)c(-c4c(C)ccc5cnn(C6CC6)c45)c(Cl)cc23)C[C@H]1C` [Compound 20, 4-((2S,5R)-4-acryloyl-2,5-dimethylpiperazin-1-yl)-6-chloro-7-(1-cyclopropyl-6-methyl-1H-indazol-7-yl)-8-fluoroquinoline-3-carbonitrile], the Binding % result is “+ (+ indicates binding activity greater than 0% and up to 50%)”.

`C=CC(=O)N1C[C@H](C)N(c2c(C#N)cnc3c(F)c(-c4c(C)ccc5[nH]nc(C)c45)c(Cl)cc23)C[C@H]1C` [Compound 21, 4-((2S,5R)-4-acryloyl-2,5-dimethylpiperazin-1-yl)-6-chloro-7-(3,5-dimethyl-1H-indazol-4-yl)-8-fluoroquinoline-3-carbonitrile]: the Binding % result is “+ (+ indicates binding activity greater than 0% and up to 50%)”.

Take `C=CC(=O)N1[C@H](C)CN(c2c(C#N)cnc3c(F)c(-c4c(C)ccc5cnn(C)c45)c(Cl)cc23)C[C@@H]1C` [Compound 22, 4-((3S,5R)-4-acryloyl-3,5-dimethylpiperazin-1-yl)-6-chloro-7-(1,6-dimethyl-1H-indazol-7-yl)-8-fluoroquinoline-3-carbonitrile]: the Binding % result is “++ (++ indicates binding activity from 50 to 85%)”.

These data come from patent publication US10736897B2, “Compounds and methods of use thereof for treatment of cancer” (Araxes Pharma LLC, priority 2017, dated 2020).
